According to PMC6368337, “GluClR-mediated inhibitory postsynaptic currents reveal targets for ivermectin and potential mechanisms of ivermectin resistance” (PLoS Pathogens, 2019):

Key:
[1] = tested on: Untransfected HEK293 cells; assay: Membrane partitioning, time-lapse fluorescence
Procedure: Two types of experiments were conducted with IVM-bdpy. The first was aimed at monitoring the time-course of membrane accumulation. Untransfected HEK293 cells were incubated in extracellular solution containing 500 nM IVM-bdpy and time-lapse images were taken over a period of 30 min (Fig 8A). The change in total membrane fluorescence averaged from 5 repeat experiments was then plotted against time and fitted to a standard exponential function (Fig 8B). In a control experiment, the corresponding accumulation rate was also determined for bdpy. To obtain the net membrane partitioning time-course for IVM-1, the data for the bdpy alone was subtracted from the data obtained for IVM-bdpy (Fig 8B). The time constants for the three plots were 6.5 min for the IVM-bdpy, 8.2 min for the bdpy fluorophore and 6.0 min for IVM-1. As the lipophilic properties of IVM and IVM-1 are similar (logPs of 5.4 and 5.1, respectively), we infer this analysis quantitatively reflects the membrane partitioning properties of IVM. […] It should be noted, however, that the IVM-bdpy experiment was done using a 100-fold higher concentration of drug in un-transfected cells and represents passive membrane accumulation, whereas the current plateau involved IVM binding to and activating receptors.
Membrane partitioning and FRAP experiments were performed on an LSM 710 inverted 2-photon confocal microscope equipped with a 40X water immersion objective lens (1.2 NA/280 μM WD/0.208 μM/pixel and a GFP/Alexa 488 filter set. Untransfected HEK293 cells at a confluency of 50–75% were plated onto 35-mm glass bottom dishes one day prior to experiments. The IVM-bdpy fluorophore was dissolved in 100% DMSO and stored at ‐20°C at a concentration of 24 mM.
A Mai Tai eHP 2-photon laser/760-1040 nm was used as an excitation source (power at 920 nm) for the FRAP experiments. The laser and bleaching power were set to 7% and 75% respectively. Membrane partitioning images were taken for 35 min at 0.5 Hz after replacing the cell medium (extracellular solution) with one containing the IVM-bdpy probe at a concentration of 500 nM. FRAP images were taken at a frequency of 0.5 Hz for 10 min after a 30 min equilibration period in 500 nM IVM-bdpy.

[2] = Lipophilicity (logP); format: physicochemical
[3] = molecular target: αβ (1:50) GluClRs (Haemonchus contortus, UniProt O46124+P91730); assay: Two-electrode voltage clamp in oocytes, αβ (1:50) GluClRs; format: cell-based, H. contortus
Procedure: (§1) cDNAs encoding the α (avr-14b) (pcDNA 3.1+) or β (pUNIV) GluClR subunits of H. contortus were nuclear injected into oocytes (NASCO, WI USA) or transfected into HEK293AD cells (CellBank Australia) using a calcium phosphate-DNA co-precipitate method. Synapse formation between neurons and HEK293 cells was promoted by co-transfecting neuroligin 2A or 1B and the cDNA encoding CD4 surface antigen was also added to the transfection mixture so as to identify transfected cells. The oocytes and HEK cells were used for experiments 2–3 days after the introduction of the cDNAs. All experiments were done at room temperature (22 ± 1°C).
(§2) Xenopus laevis oocytes were harvested by surgical incision. The oocytes were then defolliculated with 1.5 mg/ml collagenase for 2 hours. Free oocytes were rinsed with calcium-free OR-2 solution containing (in mM) 82.5 NaCl, 2 KCl, 1 MgCl2, 5 HEPES, pH 7.4 and mature stage V or VI oocytes were isolated for experiments. The DNAs coding for α and β subunits were nuclear injected into the oocytes using a Nanoliter 2000 microinjector (WPI Inc) at a ratio of (α:β), 1:0, 0:1, 1:1 and 1:50. The total amount of injected DNA in all combinations was 400 ng ml^−1, including the 1:50 (α:β) combination (8 ng of DNA encoding the α and 392 ng of DNA encoding β subunits). Injected oocytes were incubated in ND96 storage solution (in mM) 96 NaCl, 2 KCl, 1 MgCl2.6H2O, 1.8 CaCl2, 5 HEPES, 50 μg ml^−1 gentamicin, 2.5 sodium pyruvate, 0.5 theophylline, pH 7.4 at 16°C for 2–3 days before experiment.
(§3) For the two-electrode voltage clamp recordings, each oocyte was secured in a cell bath that was continually perfused with ND96 recording solution (ND96 storage solution without pyruvate, theophylline and gentamicin). […] The two microelectrodes contained 3 M KCl and had resistances of 0.2–2 MΩ. Recordings were done using Clampex 10.2 software (Molecular Devices) at a clamped voltage of −40 mV. Currents were low-pass filtered at 200 Hz, sampled at 2 kHz using a Gene Clamp 500B amplifier and digitised by a Digidata 1440A interface. The IVM (IVM B1a) concentration-response experiments were standardised by using an application protocol that consisted of applying increasing concentrations of IVM for, respectively, 3 min, 3 min, 3 min, 2 min, 1 min, 1 min and 0.5 min.
(§4) Group data were analysed in SigmaPlot 13.0 using one-way ANOVAs, where p < 0.05 was taken as the significance threshold and expressed as mean ± SEM. Tests for normally distributed data are built into the SigmaPlot software. Confocal images were captured and analysed with Zen 2012 SP2 (Zeiss) software. Oocyte concentration-response data were fit to a Hill equation to obtain an EC50 and Hill co-efficient for each oocyte recording. These parameters were then averaged across multiple oocyte experiments of the same type. Single channel recordings were analysed in QuB software. […] The selected critical times eliminated periods of receptor desensitisation while retaining singe receptor active periods. Mean active period duration and intra-activation open probability was estimated from each patch. Group means were obtained by averaging across multiple patches for each recording condition.

[4] = molecular target: α (avr-14b) GluClRs (Haemonchus contortus, UniProt O46124); assay: Two-electrode voltage clamp in oocytes, α GluClRs; format: cell-based, H. contortus
Procedure: as §1, §2, §3, §4

[5] = molecular target: T1, β GluClRs (Haemonchus contortus, UniProt P91730); assay: Two-electrode voltage clamp in oocytes, β GluClRs; format: cell-based, H. contortus; details: glutamate-gated current, oocytes
Procedure: as §1
Xenopus laevis oocytes were harvested by surgical incision. The oocytes were then defolliculated with 1.5 mg/ml collagenase for 2 hours. Free oocytes were rinsed with calcium-free OR-2 solution containing (in mM) 82.5 NaCl, 2 KCl, 1 MgCl2, 5 HEPES, pH 7.4 and mature stage V or VI oocytes were isolated for experiments. The DNAs coding for α and β subunits were nuclear injected into the oocytes using a Nanoliter 2000 microinjector (WPI Inc) at a ratio of (α:β), 1:0, 0:1, 1:1 and 1:50. […]
Group data were analysed in SigmaPlot 13.0 using one-way ANOVAs, where p < 0.05 was taken as the significance threshold and expressed as mean ± SEM. […] Confocal images were captured and analysed with Zen 2012 SP2 (Zeiss) software. […] Single channel recordings were analysed in QuB software. […]

[6] = molecular target: T2, αβ (1:1) GluClRs (Haemonchus contortus, UniProt O46124+P91730); assay: Two-electrode voltage clamp in oocytes, αβ (1:1) GluClRs; format: cell-based, H. contortus; details: glutamate-gated current, oocytes, 1:1
Procedure: as §1, §2, §3
Group data were analysed in SigmaPlot 13.0 using one-way ANOVAs, where p < 0.05 was taken as the significance threshold and expressed as mean ± SEM. Tests for normally distributed data are built into the SigmaPlot software. Confocal images were captured and analysed with Zen 2012 SP2 (Zeiss) software. Oocyte concentration-response data were fit to a Hill equation to obtain an EC50 and Hill co-efficient for each oocyte recording. […] Single channel recordings were analysed in QuB software. […]

[7] = molecular target: T1, β GluClRs; assay: Single channel recording, outside-out patches, β GluClRs; format: cell-based, H. contortus
Description: (§5) To explore whether a similar mechanism applies to β-containing GluClRs, we recorded single receptor currents in excised patches from cells transfected with either the α and β subunits (1:1) or the β subunit alone. […] By contrast, patches from cells transfected with the β subunit alone invariably opened to an amplitude of 0.4 pA (Fig 6C). Amplitude histograms confirmed two amplitude levels for αβ GluClRs and a single amplitude for the β GluClRs (Fig 6D). […] We infer that the αβ GluClRs that open to 0.7 pA likely contain a greater proportion of β subunits. This is consistent with β GluClRs having the smallest amplitude and α GluClRs having the greatest amplitude (1.8 pA) under similar recording conditions. The calculated conductance values for the corresponding amplitudes for αβ GluClRs was 15.2 pS and 8.9 pS and for the β GluClRs was 5.1 pS.
(§6) Single-channel currents were recorded from outside-out excised patches at a clamped potential of −70 mV. The single channel conductance was calculated by dividing the mean current by the net driving force at a clamped potential of ‐70 mV, after accounting for reversal and liquid junction potentials. Excised patches were continuously perfused via a gravity-fed double-barrelled glass tube, which contained extracellular bath solution containing (in mM), 140 NaCl, 5 KCl, 1 MgCl2, 2 CaCl2, 10 HEPES, and 10 D-glucose and titrated to pH 7.4. Glutamate and IVM were dissolved in this extracellular solution. Recording electrodes were pulled from borosilicate glass (G150F-3; Warner Instruments), coated with a silicone elastomer (Sylgard-184; Dow Corning) and heat-polished to a final tip resistance of 4–15 MΩ when filled with an intracellular solution containing (in mM) 145 CsCl, 2 MgCl2, 2 CaCl2, 10 HEPES, and 5 EGTA, pH 7.4. […] A 10 mM stock of IVM (Sigma-Aldrich) was dissolved in 100% DMSO and kept frozen at ‐20°C. Fresh working stocks of IVM at 5 nM were prepared by dissolving the appropriate quantity directly in extracellular solution. 100% DMSO when dissolved in extracellular solution alone at the same concentration as was present in working solutions containing 5 nM IVM had no effect on patches excised from cells transfected with GluClRs or from untransfected cells.
(§7) Currents were recorded using an Axopatch 200B amplifier (Molecular Devices), filtered at 5 kHz and digitized at 20 kHz using Clampex (pClamp 10 suite, Molecular Devices) via a Digidata 1440A digitizer.
(§8) Group data were analysed in SigmaPlot 13.0 using one-way ANOVAs, where p < 0.05 was taken as the significance threshold and expressed as mean ± SEM. Tests for normally distributed data are built into the SigmaPlot software. Confocal images were captured and analysed with Zen 2012 SP2 (Zeiss) software. Oocyte concentration-response data were fit to a Hill equation to obtain an EC50 and Hill co-efficient for each oocyte recording. These parameters were then averaged across multiple oocyte experiments of the same type. Single channel recordings were analysed in QuB software. […] Patches yielded between 30–250 individual active periods. […] The selected critical times eliminated periods of receptor desensitisation while retaining singe receptor active periods. Mean active period duration and intra-activation open probability was estimated from each patch. Group means were obtained by averaging across multiple patches for each recording condition.

[8] = molecular target: T2, αβ (1:1) GluClRs; assay: Single channel recording, outside-out patches, αβ (1:1) GluClRs; format: cell-based, H. contortus; details: for mean active period duration: −70 mV
Description: as §5, §6, §7, §8

αβ (1:50) GluClRs, sequence (O46124 entry or part of it): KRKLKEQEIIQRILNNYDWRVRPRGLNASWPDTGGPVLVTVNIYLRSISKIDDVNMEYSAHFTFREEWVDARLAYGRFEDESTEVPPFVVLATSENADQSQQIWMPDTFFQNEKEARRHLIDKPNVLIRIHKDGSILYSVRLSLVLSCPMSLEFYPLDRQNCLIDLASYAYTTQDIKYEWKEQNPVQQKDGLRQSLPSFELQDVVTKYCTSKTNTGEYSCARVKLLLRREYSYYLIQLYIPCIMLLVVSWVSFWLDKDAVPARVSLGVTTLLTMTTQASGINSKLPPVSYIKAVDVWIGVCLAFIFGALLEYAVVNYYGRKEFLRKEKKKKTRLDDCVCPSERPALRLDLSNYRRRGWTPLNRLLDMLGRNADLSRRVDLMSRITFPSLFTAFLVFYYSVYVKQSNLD
αβ (1:50) GluClRs, sequence (P91730 19-432): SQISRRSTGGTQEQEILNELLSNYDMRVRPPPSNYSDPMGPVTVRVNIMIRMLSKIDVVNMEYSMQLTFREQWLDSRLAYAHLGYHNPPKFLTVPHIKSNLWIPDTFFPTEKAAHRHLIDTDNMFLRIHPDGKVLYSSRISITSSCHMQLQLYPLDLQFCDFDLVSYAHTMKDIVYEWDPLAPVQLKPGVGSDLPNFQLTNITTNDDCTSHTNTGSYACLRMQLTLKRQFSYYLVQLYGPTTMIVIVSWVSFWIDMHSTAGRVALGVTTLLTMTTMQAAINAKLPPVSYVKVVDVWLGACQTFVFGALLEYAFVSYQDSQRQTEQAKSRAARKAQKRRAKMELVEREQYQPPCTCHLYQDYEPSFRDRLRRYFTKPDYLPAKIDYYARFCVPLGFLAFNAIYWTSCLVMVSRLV
T1 sequence (P91730 19-432): as above
T2 sequence (P91730 19-432): as above
T2 sequence (O46124 entry or part of it): as the sequence (O46124 entry or part of it) above
α (avr-14b) GluClRs, sequence (O46124 entry or part of it): as above

| Compound | net membrane partitioning time constant ([1]; bdpy data subtracted from IVM-bdpy data) | time to plateau of membrane partitioning ([1]; subtraction plot (IVM-bdpy minus bdpy)) | logP [2] | efficacy (maximal current normalised to saturating glutamate) compared to IVM ([3]; 30 nM, normalised to 5 mM glutamate, αβ 1:50) | differential efficacy between α and αβ (1:50) GluClRs ([3]; 30 nM, α versus αβ (1:50)) | efficacy (maximal current normalised to saturating glutamate) compared to IVM ([4]; 30 nM, normalised to 5 mM glutamate) | maximal current [5] | maximal current [6] | intra-activation open probability (PO) ([7]; 2 μM glutamate) | mean active period duration ([7]; 2 μM glutamate, −70 mV) | intra-activation open probability (PO) ([7]; 3 mM glutamate) | mean active period duration ([7]; 3 mM glutamate) | maximal current ([3]; glutamate-gated current, oocytes, 1:50) | maximal current ([4]; glutamate-gated current, oocytes) | intra-activation open probability (PO) ([8]; 2 μM glutamate) | mean active period duration ([8]; 2 μM glutamate, both stoichiometries pooled) | intra-activation open probability (PO) ([8]; 3 mM glutamate) | mean active period duration ([8]; 3 mM glutamate, pooled) |
| --- | --- | --- | --- | --- | --- | --- | --- | --- | --- | --- | --- | --- | --- | --- | --- | --- | --- | --- |
| CC[C@H](C)[C@H]1O[C@]2(CC[C@@H]1C)C[C@@H]1C[C@@H](C/C=C(\C)[C@@H](O)[C@@H](C)/C=C/C=C3\CO[C@@H]4[C@H](O)C(C)=C[C@@H](C(=O)O1)[C@]34O)O2 [IVM-1] | 6.0 min | 18 to 20 min | 5.1 | preservation of efficacy | retained differential efficacy | significantly less efficacious than IVM |  |  |  |  |  |  |  |  |  |  |  |  |
| N[C@@H](CCC(=O)O)C(=O)O [Glutamate, L-glutamate] |  |  |  |  |  |  | 1.9 ± 0.3 μA | 2.0 ± 0.4 μA | 0.63 ± 0.07 | 7.5 ± 1.8 ms | 0.70 ± 0.11 | 164 ± 31 ms | 2.2 ± 0.4 μA | 3.7 ± 0.8 μA | 0.54 ± 0.06 | 40 ± 10 ms | 0.83 ± 0.03 | 146 ± 15 ms |
